Test results taken from patent publication US20220324835A1 (Nurix Therapeutics, Inc., priority 2018, published 2022).
pIC50: −log10 of the molar value.

Experiments:
T-cell [1] = test: IL-2 secretion from T-cells stimulated with anti-CD3 antibody alone (Biological Example 2); assay type: cell-based, human; conditions: for fold induction at 1 µM: T-cell
T-cell [2] = test: IL-2 secretion from T-cells co-stimulated with anti-CD3 and anti-CD28 antibody (Biological Example 2); assay type: cell-based, human; conditions: for IL-2 secretion, Anti-CD3/Anti-CD28 stimulation, fold change over baseline: baseline = anti-CD3/anti-CD28 stimulated cells without inhibitor; for fold induction at 0.3 µM / fold induction at 1 µM: Homo sapiens, T-cell
Outline: (§1)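 Values are fold-change over baseline: readings (IL-2 release, CD25 staining) from inhibitor-treated T-cells divided against untreated cells […]. No detailed procedure stated.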

T-cell [3] = test: CD25 cell surface staining on T-cells stimulated with anti-CD3 antibody alone (Biological Example 2); assay type: cell-based, human; conditions: for CD25 staining, Anti-CD3 stimulation, fold change over baseline: baseline = anti-CD3/anti-CD28 stimulated cells without inhibitor; for fold induction at 1 µM: T-cell
Cbl-b [4] = biological target: T1, Cbl-b (Homo sapiens, UniProt Q13191); test: Cbl-b activity assay (Cbl-b inhibition assay), TR-FRET of Cbl-b interaction with UbcH5B-Ub; assay type: biochemical; conditions: assay buffer with 100 mM NaCl, 60 nM Src kinase; read-out: Cbl-b activity IC50
Outline: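 Compound-treated Cbl-b was incubated 1.5 h with Src kinase (60 nM final; 30 nM for asterisked values, which also used 50 mM instead of 100 mM NaCl), 1 mM ATP and 5 mM MgCl2. Binding to fluorescent Ub-loaded UbcH5B (C85K mutant) was then read by TR-FRET after 1 h more.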

Cbl-b [5] = biological target: T1, Cbl-b; test: Cbl-b inhibition assay (Cbl-b activity assay, FRET, Biological Example 1; 100 mM NaCl, 60 nM Src kinase); assay type: biochemical; conditions: upper bound stated in text lists; read-out: IC50 values in the Cbl-b inhibition assay of Biological Example 1
Outline: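 Here, the E2 UbcH5B, irreversibly linked to Bodipy-fluorescein ubiquitin, binds Cbl-b once Src kinase phosphorylates it; Cbl-b carries an N-terminal biotinylated Avi-tag captured by streptavidin-terbium. An absent FRET signal indicates inhibition.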

T-cell [6] = test: CD25 cell surface staining on T-cells co-stimulated with anti-CD3 and anti-CD28 antibody (Biological Example 2); assay type: cell-based, human; conditions: for CD25 staining, Anti-CD3/Anti-CD28 stimulation, fold change over baseline: baseline = anti-CD3/anti-CD28 stimulated cells without inhibitor; for fold induction at 0.3 µM / fold induction at 1 µM: Homo sapiens, T-cell
Outline: as §1

[7] = 1 μM compound, primary human total T-cells
[8] = 8 μM compound, primary human total T-cells
[9] = 0.3 μM compound, primary human total T-cells
[10] = 4 μM compound, primary human total T-cells
[11] = Homo sapiens, 1 μM Cbl-b inhibitor, fold change over baseline (anti-CD3/anti-CD28 stimulated T-cells without inhibitor), read-out: IL-2 secretion Anti-CD3 stimulation
[12] = 0.3 μM Cbl-b inhibitor, fold change over baseline (anti-CD3/anti-CD28 stimulated T-cells without inhibitor), read-out: IL-2 secretion Anti-CD3/Anti-CD28 stimulation
[13] = 1 μM Cbl-b inhibitor, fold change over baseline (anti-CD3/anti-CD28 stimulated T-cells without inhibitor), read-out: IL-2 secretion Anti-CD3/Anti-CD28 stimulation
[14] = Homo sapiens, 1 μM Cbl-b inhibitor, fold change over baseline (anti-CD3/anti-CD28 stimulated T-cells without inhibitor), read-out: CD25 staining Anti-CD3 stimulation
[15] = 0.3 μM Cbl-b inhibitor, fold change over baseline (anti-CD3/anti-CD28 stimulated T-cells without inhibitor), read-out: CD25 staining Anti-CD3/Anti-CD28 stimulation
[16] = 1 μM Cbl-b inhibitor, fold change over baseline (anti-CD3/anti-CD28 stimulated T-cells without inhibitor), read-out: CD25 staining Anti-CD3/Anti-CD28 stimulation
[17] = Homo sapiens, read-out: IL-2 secretion, Anti-CD3 stimulation, fold change over baseline
[18] = read-out: IL-2 secretion, Anti-CD3/Anti-CD28 stimulation, fold change over baseline
[19] = Homo sapiens, read-out: CD25 staining, Anti-CD3 stimulation, fold change over baseline
[20] = read-out: CD25 staining, Anti-CD3/Anti-CD28 stimulation, fold change over baseline

T1 sequence (Q13191 36-427): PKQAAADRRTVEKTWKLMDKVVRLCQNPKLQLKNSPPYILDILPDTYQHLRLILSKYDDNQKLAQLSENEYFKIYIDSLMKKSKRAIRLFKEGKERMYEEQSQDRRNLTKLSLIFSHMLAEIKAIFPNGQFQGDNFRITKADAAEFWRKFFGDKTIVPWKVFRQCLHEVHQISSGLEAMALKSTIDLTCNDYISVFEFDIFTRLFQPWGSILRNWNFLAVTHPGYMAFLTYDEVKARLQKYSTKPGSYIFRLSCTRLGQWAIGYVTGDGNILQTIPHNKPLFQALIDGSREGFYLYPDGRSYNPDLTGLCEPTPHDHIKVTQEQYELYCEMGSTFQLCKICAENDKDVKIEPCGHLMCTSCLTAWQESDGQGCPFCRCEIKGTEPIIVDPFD

| Compound | pIC50 (Cbl-b [4]) | pIC50 (Cbl-b [5]) | fold induction at 1 µM (T-cell [1]; [11]) | fold induction at 0.3 µM (T-cell [2]; [12]) | fold induction at 1 µM (T-cell [2]; [13]) | fold induction at 1 µM (T-cell [3]; [14]) | fold induction at 0.3 µM (T-cell [6]; [15]) | fold induction at 1 µM (T-cell [6]; [16]) | further results |
| --- | --- | --- | --- | --- | --- | --- | --- | --- | --- |
| Cn1cnnc1[C@@H](F)[C@](C)(F)c1cccc(N2Cc3c(cccc3C(F)(F)F)C2=O)c1 (stereo in doubt) [Compound 480, 2-(3-((1R,2R)-1,2-difluoro-1-(4-methyl-4H-1,2,4-triazol-3-yl)propan-2-yl)phenyl)-4-(trifluoromethyl)isoindolin-1-one] | 6.52 to 7.00 | ≥ 6.52 |  |  |  |  |  |  | IL-2 secretion, Anti-CD3 stimulation, fold change over baseline (T-cell [1]; [7]): E (E indicates ≤0.050 fold); IL-2 secretion, Anti-CD3 stimulation, fold change over baseline (T-cell [1]; [8]): D (D indicates 0.051-0.1 fold); IL-2 secretion, Anti-CD3/Anti-CD28 stimulation, fold change over baseline (T-cell [2]; [9]): D (D indicates 1.01-2.50 fold); IL-2 secretion, Anti-CD3/Anti-CD28 stimulation, fold change over baseline (T-cell [2]; [7]): D (D indicates 1.01-2.50 fold); IL-2 secretion, Anti-CD3/Anti-CD28 stimulation, fold change over baseline (T-cell [2]; [10]): D (D indicates 1.01-2.50 fold); CD25 staining, Anti-CD3 stimulation, fold change over baseline (T-cell [3]; [7]): D (D indicates ≤0.600 fold); CD25 staining, Anti-CD3 stimulation, fold change over baseline (T-cell [3]; [8]): C (C indicates 0.601<0.800 fold); CD25 staining, Anti-CD3/Anti-CD28 stimulation, fold change over baseline (T-cell [6]; [9]): D (D indicates 1.01-1.30 fold); CD25 staining, Anti-CD3/Anti-CD28 stimulation, fold change over baseline (T-cell [6]; [7]): D (D indicates 1.01-1.30 fold); CD25 staining, Anti-CD3/Anti-CD28 stimulation, fold change over baseline (T-cell [6]; [10]): D (D indicates 1.01-1.30 fold) |
| Cn1cnnc1CC1(c2cccc(NC(=O)c3[nH]nc4c3OCCC4)c2)COC1 [Compound 343, N-(3-(3-((4-Methyl-4H-1,2,4-triazol-3-yl)methyl)oxetan-3-yl)phenyl)-2,5,6,7-tetrahydropyrano[3,2-c]pyrazole-3-carboxamide] | > 7.00 | ≥ 7.00 |  |  |  |  |  |  | fold induction at 1 µM (T-cell [1]; fold change over baseline, 1 μM Cbl-b inhibitor, primary human total T-cells, read-out: IL-2 secretion Anti-CD3 stimulation): 0.051 to 0.1; fold induction at 0.3 µM (T-cell [2]; fold change over baseline, 0.3 μM Cbl-b inhibitor, primary human total T-cells, read-out: IL-2 secretion Anti-CD3/Anti-CD28 stimulation): 1.01 to 2.5; fold induction at 1 µM (T-cell [2]; fold change over baseline, 1 μM Cbl-b inhibitor, primary human total T-cells, read-out: IL-2 secretion Anti-CD3/Anti-CD28 stimulation): 1.01 to 2.5; fold induction at 1 µM (T-cell [3]; fold change over baseline, 1 μM Cbl-b inhibitor, primary human total T-cells, read-out: CD25 staining Anti-CD3 stimulation): 0.601 to 0.8; fold induction at 0.3 µM (T-cell [6]; fold change over baseline, 0.3 μM Cbl-b inhibitor, primary human total T-cells, read-out: CD25 staining Anti-CD3/Anti-CD28 stimulation): 1.01 to 1.3; fold induction at 1 µM (T-cell [6]; fold change over baseline, 1 μM Cbl-b inhibitor, primary human total T-cells, read-out: CD25 staining Anti-CD3/Anti-CD28 stimulation): 1.01 to 1.3 |
| Cn1cnnc1CC1(c2cccc(N3Cc4c(cc(CN5Cc6cccnc6C5)cc4C(F)(F)F)C3=O)c2)COC1 [Example 660, 6-((5,7-dihydro-6H-pyrrolo[3,4-b]pyridin-6-yl)methyl)-2-(3-(3-((4-methyl-4H-1,2,4-triazol-3-yl)methyl)oxetan-3-yl)phenyl)-4-(trifluoromethyl)isoindolin-1-one] | > 7.00 | ≥ 7.00 | > 0.201 | 2.51 to 5 | > 7.5 | > 1 | 1.31 to 1.5 | 1.31 to 1.5 |  |
| Cn1cnnc1CC1(c2cccc(N3Cc4c(cc(CN5CCC(F)(F)CC5)cc4C(F)(F)F)C3=O)c2)COC1 [Example 633, 6-((4,4-difluoropiperidin-1-yl)methyl)-2-(3-(3-((4-methyl-4H-1,2,4-triazol-3-yl)methyl)oxetan-3-yl)phenyl)-4-(trifluoromethyl)isoindolin-1-one] | > 7.00 | ≥ 7.00 | > 0.201 | > 7.5 | > 7.5 | > 1 | 1.31 to 1.5 | 1.31 to 1.5 |  |
| Cn1cnnc1CC1(c2cccc(N3Cc4c(cc(CN5CCC(C#N)CC5)cc4C(F)(F)F)C3=O)c2)COC1 [Example 628, 1-((2-(3-(3-((4-methyl-4H-1,2,4-triazol-3-yl)methyl)oxetan-3-yl)phenyl)-3-oxo-7-(trifluoromethyl)isoindolin-5-yl)methyl)piperidine-4-carbonitrile] | > 7.00 | ≥ 7.00 | > 0.201 | 5 to 7.5 | > 7.5 | > 1 | 1.31 to 1.5 | 1.31 to 1.5 |  |
| Cn1cnnc1CC1(c2cccc(N3Cc4c(cc(CN5CCC6(CC6)C(F)(F)C5)cc4C(F)(F)F)C3=O)c2)COC1 [Example 636, 6-((4,4-difluoro-6-azaspiro[2.5]octan-6-yl)methyl)-2-(3-(3-((4-methyl-4H-1,2,4-triazol-3-yl)methyl)oxetan-3-yl)phenyl)-4-(trifluoromethyl)isoindolin-1-one] | > 7.00 | ≥ 7.00 | > 0.201 | 2.51 to 5 | > 7.5 | > 1 | 1.31 to 1.5 | 1.31 to 1.5 |  |
| Cn1cnnc1CC1(c2cccc(N3Cc4c(cc(CN5CCc6ccccc6C5)cc4C(F)(F)F)C3=O)c2)COC1 [Example 650, 6-((3,4-dihydroisoquinolin-2(1H)-yl)methyl)-2-(3-(3-((4-methyl-4H-1,2,4-triazol-3-yl)methyl)oxetan-3-yl)phenyl)-4-(trifluoromethyl)isoindolin-1-one] | > 7.00 | ≥ 7.00 | > 0.201 | 5 to 7.5 | > 7.5 | > 1 | 1.01 to 1.3 | 1.31 to 1.5 |  |
| Cn1cnnc1CC1(c2cccc(N3Cc4c(cc(CN5[C@@H]6CC[C@H]5C[C@@H](F)C6)cc4C(F)(F)F)C3=O)c2)COC1 [Example 557, 6-(((1R,3r,5S)-3-fluoro-8-azabicyclo[3.2.1]octan-8-yl)methyl)-2-(3-(3-((4-methyl-4H-1,2,4-triazol-3-yl)methyl)oxetan-3-yl)phenyl)-4-(trifluoromethyl)isoindolin-1-one] | > 7.00 | ≥ 7.00 |  |  |  |  |  |  | fold induction at 1 µM (T-cell [1]; [17]): > 0.201; fold induction at 0.3 µM (T-cell [2]; [18]): 5 to 7.5; fold induction at 1 µM (T-cell [2]; [18]): > 7.5; fold induction at 1 µM (T-cell [3]; [19]): > 1; fold induction at 0.3 µM (T-cell [6]; [20]): > 1.76; fold induction at 1 µM (T-cell [6]; [20]): > 1.76 |
| Cn1cnnc1[C@@H](F)C1(c2cccc(N3Cc4c(cc(CN5CCC6(CC6)C5)cc4C(F)(F)F)C3=O)c2)COC1 [Example 618, (S)-6-((5-azaspiro[2.4]heptan-5-yl)methyl)-2-(3-(3-(fluoro(4-methyl-4H-1,2,4-triazol-3-yl)methyl)oxetan-3-yl)phenyl)-4-(trifluoromethyl)isoindolin-1-one] | > 7.00 | ≥ 7.00 | 0.101 to 0.15 | 5 to 7.5 | > 7.5 | > 1 | 1.01 to 1.3 | 1.31 to 1.5 |  |
| Cn1cnnc1CC1(c2cccc(N3Cc4c(cc(C5=CCCOC5)cc4C(F)(F)F)C3=O)c2)COC1 [Example 614] | > 7.00 | ≥ 7.00 | 0.101 to 0.15 | 2.51 to 5 | 2.51 to 5 | 0.801 to 1 | 1.01 to 1.3 | 1.01 to 1.3 |  |
| Cn1cnnc1CC1(c2cccc(N3Cc4c(cc(CN5C6CCCC5CC6)cc4C(F)(F)F)C3=O)c2)COC1 [Example 556, 6-((8-azabicyclo[3.2.1]octan-8-yl)methyl)-2-(3-(3-((4-methyl-4H-1,2,4-triazol-3-yl)methyl)oxetan-3-yl)phenyl)-4-(trifluoromethyl)isoindolin-1-one] | > 7.00 | ≥ 7.00 |  |  |  |  |  |  | fold induction at 1 µM (T-cell [1]; [17]): > 0.201; fold induction at 0.3 µM (T-cell [2]; [18]): > 7.5; fold induction at 1 µM (T-cell [2]; [18]): > 7.5; fold induction at 1 µM (T-cell [3]; [19]): > 1; fold induction at 0.3 µM (T-cell [6]; [20]): > 1.76; fold induction at 1 µM (T-cell [6]; [20]): > 1.76 |
